Test results reported in US20240239854A1, “ANTIMICROBIAL PEPTIDES AND MODIFICATIONS THEREOF” (Donald Danforth Plant Science Center, priority 2022, published 2024).
≈ marks a conversion by molar mass, not a printed value. No end group written: not given here.

Experiments:
Assay type in all cases: cell-based
Botrytis cinerea T4 = conditions: for MIC, in-vitro antifungal activity against B. cinerea: 48 hours
[1] = test system: Zymoseptoria tritici IPO323
[2] = test system: Fusarium graminearum PH-1; conditions: for F. graminearum PH-1 MIC Day1: MIC Day 1, 96-well plate, resazurin cell viability; for MIC, in-vitro antifungal activity against F. graminearum: F. graminearum PH-1, 48 hours

Row | Compound | B. cinerea T4 MIC Day1 (Botrytis cinerea T4) [µM] | Z. tritici IPO323 MIC Day 1 [1] [µM] | Z. tritici IPO323 MIC Day 7 [1] [µM] | Z. tritici IPO323 MIC Day 14 [1] [µM] | F. graminearum PH-1 MIC Day1 [2] [µM] | MIC, in-vitro antifungal activity against B. cinerea (Botrytis cinerea T4) [µM] | MIC against Z. tritici on day 1 [1] [µM] | MIC against Z. tritici on day 7 [1] [µM] | MIC against Z. tritici on day 14 [1] [µM] | MIC, in-vitro antifungal activity against F. graminearum [2] [µM]
1 | PD82.1.1: Pinus sylvestris wild-type defensin SEQ ID NO: 538 with N-terminal alanine, expressed in Pichia pastoris (RTCLSKSHRFHGYCVRSSSCKEICQTERFLSGECRHTHLGNRRCFCEKPC; N-terminal alanine added; listed as Pinus sylvestris) | 1.125 | 0.625 | 2 | 3.5 | 1.5 | – | – | – | – | –
2 | PD86.1.1: Erythranthe guttata wild-type defensin SEQ ID NO: 555 with N-terminal alanine, expressed in Pichia pastoris (SLCETPSRYFNGICFSRRNCGAICEKEGFSSGRCKAFKCVCGKDC; N-terminal alanine added; listed as Erythranthe guttata) | 12 | 7 | 12 | >12 | 6 | – | – | – | – | –
3 | PD85.1.1: Panax ginseng wild-type defensin SEQ ID NO: 551 with N-terminal alanine, expressed in Pichia pastoris (KLCEKASLTWSGKCGNTQNCDKQCQNWESAKHGACHKRPTWKCFCYSDC; N-terminal alanine added; Panax ginseng) | >12 | 0.625 | 1.75 | 10 | >12 | – | – | – | – | –
4 | C[C@@H]1[C@H](O)[C@@H](C)/C=C/C=C/C=C/C=C/C=C/C=C/C=C/[C@H](O[C@@H]2O[C@H](C)[C@@H](O)[C@H](N)[C@@H]2O)C[C@@H]2O[C@](O)(C[C@@H](O)C[C@@H](O)[C@H](O)CC[C@@H](O)C[C@@H](O)CC(=O)O[C@H]1C)C[C@H](O)[C@H]2C(=O)O [Amphotericin-B, reference compound] | 3 | 0.84 | 5.44 | 8.92 | 6 | 3 (≈ 2.77 µg/mL) | 0.84 (≈ 0.776 µg/mL) | 5.44 (≈ 5.03 µg/mL) | 8.92 (≈ 8.24 µg/mL) | 6 (≈ 5.54 µg/mL)
5 | PD100.1.1: Prunus armeniaca wild-type defensin SEQ ID NO: 620 with N-terminal alanine, expressed in Pichia pastoris (QRGCKQASKSMTTCTAHPECDKKCKGEKAKMGLCRADGPKGKKCWCYMC; N-terminal alanine added; listed as Prunus armeniaca) | 6 | 1 | 4 | 8 | 6 | – | – | – | – | –
6 | PD118.1.1: Malus domestica wild-type defensin SEQ ID NO: 697 with N-terminal alanine, expressed in Pichia pastoris (KICEFPSTLFKGLCFSSNNCKHTCRKEQFTRGKCSLLTRTCMCTKKC; N-terminal alanine added; listed as Malus domestica) | 1.5 | 1.5 | 2 | 3 | 1.5 | – | – | – | – | –
7 | PD84.1.1: Striga asiatica wild-type defensin SEQ ID NO: 546 with N-terminal alanine, expressed in Pichia pastoris (KICEYKSERFWGVCLSDIKCADVCKDESFESGDCQGLRRRCMCYNHC; N-terminal alanine added; listed as Striga asiatica) | >12 | >12 | >12 | >12 | >12 | – | – | – | – | –
8 | PD102.1.1: Cajanus cajan wild-type defensin SEQ ID NO: 628 with N-terminal alanine, expressed in Pichia pastoris (AVCSKPSTYFFGPCVRRSTCRRACSHENYPDGKCSRFLGKCICYKPCTT; cysteine pairing not given here; also: N-terminal alanine added, unclear whether it is the first A of the chain) | 1.25 | 1 | 1.5 | 2.5 | 1.5 | – | – | – | – | –
9 | PD119.1.1: Setaria italica wild-type defensin SEQ ID NO: 702 with N-terminal alanine, expressed in Pichia pastoris (RHCLSQSHTFKGLCFSSENCASVCKSEKFPGGQCQMHGASRKCFCKVVC; N-terminal alanine added; listed as Setaria italica) | 4.5 | 2.5 | 6 | 12 | 1.5 | – | – | – | – | –
10 | PD93.1.1: Fragaria vesca wild-type defensin SEQ ID NO: 588 with N-terminal alanine, expressed in Pichia pastoris (KICEVPSKTFKGLCVKDRNCVVRCHSEGYGNGKCSHVRRQCMCLKICD; N-terminal alanine; listed as Fragaria vesca) | 6 | 2 | 5 | 8 | >12 | – | – | – | – | –
11 | PD106.1.1: Eucalyptus grandis wild-type defensin SEQ ID NO: 645 with N-terminal alanine, expressed in Pichia pastoris (ANCAKPSKFYRGPCFNSISVKPCTQRCSQENWPIGVCTKDLRCECQRPC; cysteine pairing not given here; also: N-terminal alanine added, unclear whether it is the first A of the chain; listed as Eucalyptus grandis) | 1 | 0.375 | 1.5 | 2.5 | 0.75 | 1 | – | – | – | 0.75
12 | PD104.1.1: Eucalyptus grandis wild-type defensin SEQ ID NO: 637 with N-terminal alanine, expressed in Pichia pastoris (AICKKPSKFFKGACGRDADCEKACDQENWPGGVCVPFLRCECQRSC; cysteine pairing not given here; also: N-terminal alanine added, unclear whether it is the first A of the chain; listed as Eucalyptus grandis) | >12 | >12 | >12 | >12 | >12 | – | – | – | – | –
13 | PD113.1.1: Gossypium hirsutum wild-type defensin SEQ ID NO: 674 with N-terminal alanine, expressed in Pichia pastoris (GPTIVGGRKCKSPSKKFNGMCMNHVNCATVCQTESHEDGKCEGFYRRCICIKPCF; N-terminal alanine added; listed as Gossypium hirsutum) | 6 | 4 | 12 | >12 | 6 | – | – | – | – | –
14 | PD125.1.1: wild-type defensin-like protein SEQ ID NO: 728 with N-terminal alanine, expressed in Pichia pastoris (VICPLESKRSKTWSGVCAQSKNCDKQCKTWERAKHGACHATYGKVLGVKACMHAGNK; N-terminal alanine added; listed as Prunus armeniaca) | 10 | 3 | 7 | 9 | 8 | – | – | – | – | –
15 | PD124.1.1: Rubus argutus wild-type defensin SEQ ID NO: 723 with N-terminal alanine, expressed in Pichia pastoris (RICEVPSKTFIGLCFKDTNCIVRCRSEGYGYGKCSHFRRRCRCFKPCP; N-terminal alanine added; listed as Rubus argutus) | 0.75 | 0.75 | 3.25 | 4 | 2 | – | – | – | – | –
